Test results from the PolyMetriX glass transition set.
± gives the standard deviation of the reports.

glass transition temperature [°C]	SMILES
176.00	*c1cc(/N=N/c2ccc(C#N)cc2)cc(*)c1O (repeat unit)
229.00	*C(=O)c1ccc(Oc2ccc(-c3ccc(Oc4ccc(C(=O)c5ccc6c(c5)C(=O)N(c5ccc(N7C(=O)c8ccc(*)cc8C7=O)cc5)C6=O)cc4)cc3)cc2)cc1 (repeat unit)
239.00	*c1ccc(C(c2ccccc2)c2ccc(N(c3ccc(C)cc3)c3ccc(-c4ccc(N(*)c5ccc(C)cc5)cc4)cc3)cc2)cc1 (repeat unit)
195.00	*C(=O)c1ccc2c(c1)C(=O)N(c1cc(OCCCCCCCC)cc(N3C(=O)c4ccc(*)cc4C3=O)c1)C2=O (repeat unit)
-33.00	*CCOCCOC(=O)CCSCCC(=O)O* (repeat unit)
147.00	*Oc1ccc(NC(=O)c2ccc(Oc3ccc(C(C)(C)c4cccc(C(C)(C)c5ccc(Oc6ccc(C(=O)Nc7ccc(Oc8ccc(C(C)(C)c9ccc(*)cc9)cc8)cc7)cc6)cc5)c4)cc3)cc2)cc1 (repeat unit)
115.00	*/C=C/c1ccc2c(c1)C(CCCCCCOc1ccc3ccc(=O)oc3c1)(CCCCCCOc1ccc3ccc(=O)oc3c1)c1cc(/C=C/c3ccc4c(c3)C(CCCCCC)(CCCCCC)c3cc(*)ccc3-4)ccc1-2 (repeat unit)
290.00	*C(=O)c1ccc2c(c1)C(=O)N(c1ccc(Cc3ccc(C(=O)c4cccc(N5C(=O)c6ccc(*)cc6C5=O)c4)cc3)cc1)C2=O (repeat unit)
44.00	*CCCCCCCOC(=O)c1ccc(-c2ccc(C(=O)O*)cc2)cc1 (repeat unit)
160.00	*C(=O)Oc1ccc(OC(=O)c2ccc3c(c2)C(=O)N(c2ccc(Cc4ccc(N5C(=O)c6ccc(*)cc6C5=O)cc4)cc2)C3=O)c(C(C)(C)C)c1 (repeat unit)
320.00	*c1ccc(-c2ccc(N3C(=O)c4ccc(S(=O)(=O)c5ccc6c(c5)C(=O)N(*)C6=O)cc4C3=O)cc2C(F)(F)F)c(C(F)(F)F)c1 (repeat unit)
235.00	*Nc1ccccc1CCc1ccccc1NC(=O)Nc1ccc(CCc2ccc(NC(*)=O)cc2)cc1 (repeat unit)
243.00	*c1ccc(Oc2ccc(-n3nccc3-c3ccc(-c4ccnn4*)cc3)cc2)cc1 (repeat unit)
24.00	*CC(F)(F)C(F)(F)C(F)(F)COC(=O)c1cccc(C(F)(F)C(F)(F)C(F)(F)c2cccc(C(=O)O*)c2)c1 (repeat unit)
360.00	*c1ccc(-c2ccc(-c3ccc(-c4cc(-c5ccccc5)c5cc(-c6ccc7nc(*)cc(-c8ccccc8)c7c6)ccc5n4)cc3)cc2)cc1 (repeat unit)
248.00	*Oc1c(C)cc(C(C)(C)c2cc(C)c(ON3C(=O)c4ccc(Oc5ccc(C6(c7ccc(Oc8ccc9c(c8)C(=O)N(*)C9=O)cc7)CCC(C(C)(C)C)CC6)cc5)cc4C3=O)c(C)c2)cc1C (repeat unit)
113.00	*Oc1ccc(-c2ccc(OC(=O)c3cc(OCCCCCC)c(C(*)=O)cc3OCCCCCC)cc2)cc1 (repeat unit)
74.00	*OC(=O)C(Cc1ccccc1)NC(=O)CCCCCCCCC(=O)NC(Cc1ccccc1)C(=O)OC1COC2C(*)COC12 (repeat unit)
251.00	*Oc1ccc(Oc2ccc(S(=O)(=O)c3ccc(-c4ccc(S(=O)(=O)c5ccc(*)cc5)cc4)cc3)cc2)cc1 (repeat unit)

SMILES	glass transition temperature [°C]
*CC(*)C(=O)c1ccc(C(C)(C)C)cc1 (repeat unit)	103.50
*Oc1ccc(C(*)=O)cc1 (repeat unit) [Poly(p-hydroxybenzoate)]	147 ± 8.5
*Oc1ccc2cc(C(*)=O)ccc2c1 (repeat unit)	147.00
*CC(*)C(=O)OCCCOCC (repeat unit)	-61.50
*CCC(C)S* (repeat unit)	-59.00
